# Experiments:
# Format in all cases: in vivo
# [1] = tested on: field corn (Zea mays L., var. Dekalb 535, CORN); assay: Post-emerge test, crop safety; details: rating scale 0-100 (0 no damage, 100 complete death), 14 days after application
# Method in brief: (§1)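 Rating: 0–100 visual injury, 14 DAA. Application: acetone, 187 l/ha, 15–1000 g ai/ha, flat-fan track sprayer with nozzle 40–45 cm above soil or canopy. Post-emerge runs used 0.25% v/v surfactant on 2–3 leaf plants.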
# [2] = tested on: upland rice (Oryza sp., var. Tebonnet, RICE); assay: Post-emerge test, crop safety; details: rating scale 0-100 (0 no damage, 100 complete death), 14 days after application
# Method in brief: as §1
# [3] = tested on: large crabgrass (Digitaria sanguinalis, DIGSA); assay: Pre-emerge test, greenhouse herbicide activity screening; details: rating scale 0-100, 14 days after application
# Method in brief: (§2)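 Compounds in acetone were track-sprayed at 15–1000 g ai/ha: pre-emergence onto soil sown the previous day, then top-watered to incorporate and later bottom-watered; post-emergence onto 2–3 leaf plants with 0.25% v/v surfactant, bottom-watered only. Ratings on a 0–100 phytotoxicity scale were taken at day 14.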
# [4] = tested on: common ragweed (Ambrosia artemisizfolia L., AMBEL); assay: as above; details: rating scale 0-100, 14 days after application
# Method in brief: as §2
# [5] = tested on: velvetleaf (Abutilon theophrasti, ABUTH); assay: as above; details: rating scale 0-100, 14 days after application
# Method in brief: as §2
# [6] = tested on: ivyleaf morningglory (Ipomoea hederacea, IPOHE); assay: as above; details: rating scale 0-100, 14 days after application
# Method in brief: as §2
# [7] = tested on: lambsquarters (Chenopodium album, CHEAL); assay: as above; details: rating scale 0-100, 14 days after application
# Method in brief: as §2
# [8] = tested on: barnyardgrass (Echinochloa crus-galli, ECHCG); assay: as above; details: rating scale 0-100, 14 days after application
# Method in brief: as §2
# [9] = tested on: green foxtail (Setaria viridis, SETVI); assay: as above; details: rating scale 0-100, 14 days after application
# Method in brief: as §2
# [10] = tested on: sicklepod (Cassia obtusifolia, CASOB); assay: as above; details: rating scale 0-100, 14 days after application
# Method in brief: as §2
# [11] = tested on: johnsongrass (Sorghum halepense, SORHA); assay: as above; details: rating scale 0-100, 14 days after application
# Method in brief: as §2
# [12] = tested on: redroot pigweed (Amaranthus retroflexus, AMARE); assay: as above; details: rating scale 0-100, 14 days after application
# Method in brief: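 Plants grown in 10 cm pots of sandy loam mix received acetone-dissolved compounds through a moving flat-fan nozzle. Doses ranged from 15 to 1000 g ai/ha. Pre-emerge pots were seeded one day earlier, post-emerge pots 8–21 days earlier. Fourteen days on, each pot was graded 0–100 for damage.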
# [13] = tested on: field corn (Zea mays L., var. Dekalb 535, CORN); assay: Pre-emerge test, crop safety; details: rating scale 0-100, 14 days after application
# Method in brief: (§3)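 Visual ratings on a 0-100 scale (0 no damage, 100 all plants dead) were taken at 14 days after treatment. Rates of 15-1000 g ai/ha in acetone, 187 l/ha, were sprayed onto soil one day after planting (pre-emerge) or onto 2-3 leaf plants with 0.25% v/v surfactant (post-emerge).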
# [14] = tested on: upland rice (Oryza sp., var. Tebonnet, RICE); assay: Pre-emerge test, crop safety; details: rating scale 0-100, 14 days after application
# Method in brief: as §3
# [15] = tested on: large crabgrass (Digitaria sanguinalis, DIGSA); assay: Post-emerge test, greenhouse herbicide activity screening; details: rating scale 0-100 (0 no damage, 100 complete death), 14 days after application
# Method in brief: (§4)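 Compounds in acetone were track-sprayed at 187 l/ha, 15–1000 g ai/ha, onto sandy loam pots. Pre-emerge seeds were sown one day before spraying, with surface watering afterwards. Post-emerge plants were at the 2–3 leaf stage and sprayed with 0.25% v/v non-ionic surfactant. Injury was rated 0–100 at 14 days.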
# [16] = tested on: common ragweed (Ambrosia artemisizfolia L., AMBEL); assay: as above; details: rating scale 0-100 (0 no damage, 100 complete death), 14 days after application
# Method in brief: as §4
# [17] = tested on: velvetleaf (Abutilon theophrasti, ABUTH); assay: as above; details: rating scale 0-100 (0 no damage, 100 complete death), 14 days after application
# Method in brief: as §4
# [18] = tested on: ivyleaf morningglory (Ipomoea hederacea, IPOHE); assay: as above; details: rating scale 0-100 (0 no damage, 100 complete death), 14 days after application
# Method in brief: as §4
# [19] = tested on: lambsquarters (Chenopodium album, CHEAL); assay: as above; details: rating scale 0-100 (0 no damage, 100 complete death), 14 days after application
# Method in brief: as §4
# [20] = tested on: barnyardgrass (Echinochloa crus-galli, ECHCG); assay: as above; details: rating scale 0-100 (0 no damage, 100 complete death), 14 days after application
# Method in brief: as §4
# [21] = tested on: green foxtail (Setaria viridis, SETVI); assay: as above; details: rating scale 0-100 (0 no damage, 100 complete death), 14 days after application
# Method in brief: as §4
# [22] = tested on: sicklepod (Cassia obtusifolia, CASOB); assay: as above; details: rating scale 0-100 (0 no damage, 100 complete death), 14 days after application
# Method in brief: as §4
# [23] = tested on: redroot pigweed (Amaranthus retroflexus, AMARE); assay: as above; details: rating scale 0-100 (0 no damage, 100 complete death), 14 days after application
# Method in brief: as §4
smiles,measurement,setting,value
"CCCCOC(=O)C(Cl)Cc1c(OC)c(Cl)cc(F)c1-n1c(=O)cc(C(F)(F)F)n(C)c1=O (single isomer, unassigned) [14-8]",Post-emerge phytotoxicity rating CORN (crop damage),[1]; Rate 63 g ai/ha,40
same,Post-emerge phytotoxicity rating CORN (crop damage),[1]; Rate 250 g ai/ha,80
same,Post-emerge phytotoxicity rating RICE (crop damage),[2]; Rate 63 g ai/ha,5
same,Post-emerge phytotoxicity rating RICE (crop damage),[2]; Rate 250 g ai/ha,30
same,"Pre-emerge herbicidal activity, phytotoxicity rating DIGSA",[3]; 63 g ai/ha,40
same,"Pre-emerge herbicidal activity, phytotoxicity rating DIGSA",[3]; 250 g ai/ha,100
same,"Pre-emerge herbicidal activity, phytotoxicity rating AMBEL",[4]; 63 g ai/ha,0
same,"Pre-emerge herbicidal activity, phytotoxicity rating AMBEL",[4]; 250 g ai/ha,40
same,"Pre-emerge herbicidal activity, phytotoxicity rating ABUTH",[5]; 63 g ai/ha,0
same,"Pre-emerge herbicidal activity, phytotoxicity rating ABUTH",[5]; 250 g ai/ha,40
same,"Pre-emerge herbicidal activity, phytotoxicity rating IPOHE",[6]; 63 g ai/ha,0
same,"Pre-emerge herbicidal activity, phytotoxicity rating IPOHE",[6]; 250 g ai/ha,0
same,"Pre-emerge herbicidal activity, phytotoxicity rating CHEAL",[7]; 63 g ai/ha,70
same,"Pre-emerge herbicidal activity, phytotoxicity rating CHEAL",[7]; 250 g ai/ha,95
same,"Pre-emerge herbicidal activity, phytotoxicity rating ECHCG",[8]; 63 g ai/ha,0
same,"Pre-emerge herbicidal activity, phytotoxicity rating ECHCG",[8]; 250 g ai/ha,20
same,"Pre-emerge herbicidal activity, phytotoxicity rating SETVI",[9]; 63 g ai/ha,0
same,"Pre-emerge herbicidal activity, phytotoxicity rating SETVI",[9]; 250 g ai/ha,0
same,"Pre-emerge herbicidal activity, phytotoxicity rating CASOB",[10]; 63 g ai/ha,0
same,"Pre-emerge herbicidal activity, phytotoxicity rating CASOB",[10]; 250 g ai/ha,0
same,"Pre-emerge herbicidal activity, phytotoxicity rating SORHA",[11]; 63 g ai/ha,0
same,"Pre-emerge herbicidal activity, phytotoxicity rating SORHA",[11]; 250 g ai/ha,0
same,"Pre-emerge herbicidal activity, phytotoxicity rating AMARE",[12]; 63 g ai/ha,100
same,"Pre-emerge herbicidal activity, phytotoxicity rating AMARE",[12]; 250 g ai/ha,99
same,"Pre-emerge phytotoxicity rating, crop damage CORN",[13]; 63 g ai/ha,0
same,"Pre-emerge phytotoxicity rating, crop damage CORN",[13]; 250 g ai/ha,0
same,"Pre-emerge phytotoxicity rating, crop damage RICE",[14]; 63 g ai/ha,0
same,"Pre-emerge phytotoxicity rating, crop damage RICE",[14]; 250 g ai/ha,0
same,"Post-emerge Herbicidal Activity, phytotoxicity rating DIGSA",[15]; Rate 63 g ai/ha,40
same,"Post-emerge Herbicidal Activity, phytotoxicity rating DIGSA",[15]; Rate 250 g ai/ha,85
same,"Post-emerge Herbicidal Activity, phytotoxicity rating AMBEL",[16]; Rate 63 g ai/ha,10
same,"Post-emerge Herbicidal Activity, phytotoxicity rating AMBEL",[16]; Rate 250 g ai/ha,50
same,"Post-emerge Herbicidal Activity, phytotoxicity rating ABUTH",[17]; Rate 63 g ai/ha,60
same,"Post-emerge Herbicidal Activity, phytotoxicity rating ABUTH",[17]; Rate 250 g ai/ha,100
same,"Post-emerge Herbicidal Activity, phytotoxicity rating IPOHE",[18]; Rate 63 g ai/ha,30
same,"Post-emerge Herbicidal Activity, phytotoxicity rating IPOHE",[18]; Rate 250 g ai/ha,95
same,"Post-emerge Herbicidal Activity, phytotoxicity rating CHEAL",[19]; Rate 63 g ai/ha,70
same,"Post-emerge Herbicidal Activity, phytotoxicity rating CHEAL",[19]; Rate 250 g ai/ha,99
same,"Post-emerge Herbicidal Activity, phytotoxicity rating ECHCG",[20]; Rate 63 g ai/ha,95
same,"Post-emerge Herbicidal Activity, phytotoxicity rating ECHCG",[20]; Rate 250 g ai/ha,99
same,"Post-emerge Herbicidal Activity, phytotoxicity rating SETVI",[21]; Rate 63 g ai/ha,10
same,"Post-emerge Herbicidal Activity, phytotoxicity rating SETVI",[21]; Rate 250 g ai/ha,40
same,"Post-emerge Herbicidal Activity, phytotoxicity rating CASOB",[22]; Rate 63 g ai/ha,30
same,"Post-emerge Herbicidal Activity, phytotoxicity rating CASOB",[22]; Rate 250 g ai/ha,80
same,"Post-emerge Herbicidal Activity, phytotoxicity rating AMARE",[23]; Rate 63 g ai/ha,90
same,"Post-emerge Herbicidal Activity, phytotoxicity rating AMARE",[23]; Rate 250 g ai/ha,100
